According to US8802678B2, “Carbonylated (aza) cyclohexanes as dopamine D3 receptor ligands” (Bioprojet, priority 2006, dated 2014):

Row | SMILES | melting point
1 | COCC(=O)N[C@H]1CC[C@H](CCN2CCN(c3cc(F)c(F)c(F)c3)CC2)CC1 [Example 542, 2-Methoxy-N-(4-{2-[4-(3,4,5-trifluorophenyl)piperazin-1-yl]ethyl}cyclohexyl)acetamide] | 153 °C
2 | N#Cc1cccc(N2CCN(CC[C@H]3CC[C@H](NC(=O)CCC(F)(F)F)CC3)CC2)c1 [Example 653, N-(4-{2-[4-(3-Cyanophenyl)piperazin-1-yl]ethyl}cyclohexyl)-4,4,4-trifluorobutanamide] | 176 °C
3 | Cc1cccc(C2=CCN(CC[C@H]3CC[C@H](NC(=O)C4=CCCC4)CC3)CC2)c1C#N | 183 °C
4 | CCC(=O)C(=O)N1CCC(CCN2CCN(c3cccc(C(F)(F)F)c3)CC2)CC1.Cl | 148 °C
5 | COCCCC(=O)N[C@H]1CC[C@H](CCN2CCN(c3cccc(F)c3)CC2)CC1 [Example 419, N-(4-{2-[4-(3-Fluorophenyl)piperazin-1-yl]ethyl}cyclohexyl)-4-methoxybutanamide] | 165 °C
6 | O=C(N[C@H]1CC[C@H](CCN2CCN(c3ccccc3F)CC2)CC1)C1CC=CC1 [Example 70, Cyclopent-3-enecarboxylic acid (4-{2-[4-(2-fluorophenyl)-piperazin-1-yl]ethyl}-cyclohexyl)amide trans/cis 95/5] | 204 °C
7 | N#CCC(=O)N[C@H]1CC[C@H](CCN2CCN(c3cc(F)cc(F)c3)CC2)CC1 [Example 159, 2-Cyano-N-(4-{2-[4-(3,5-difluorophenyl)piperazin-1-yl]ethyl}cyclohexyl)acetamide trans/cis 95/5] | 196 °C
8 | COc1cc(OC)cc(N2CCN(CC[C@H]3CC[C@H](NC(=O)CC#N)CC3)CC2)c1 [Example 180, 2-Cyano-N-(4-{2-[4-(3,5-dimethoxyphenyl)piperazin-1-yl]ethyl}cyclohexyl)acetamide] | 181 to 183 °C
9 | N#C[C@@H]1CC1C(=O)N[C@H]1CC[C@H](CCN2CCN(c3cccc(C(F)(F)F)c3)CC2)CC1 (stereo in doubt) [Example 324, 2-Cyano-cyclopropanecarboxylic acid (4-{2-[4-(3-trifluoromethylphenyl)piperazin-1-yl]ethyl}cyclohexyl) amide] | 159 °C
10 | CCOCC(=O)N[C@H]1CC[C@H](CCN2CCN(c3cc(C#N)cc(C(F)(F)F)c3)CC2)CC1 [Example 140, N-(4-{2-[4-(3-Cyano-5-trifluoromethylphenyl)piperazin-1-yl]ethyl}cyclohexyl)-2-ethoxyacetamide] | 133 °C
11 | O=C(N[C@H]1CC[C@H](CCN2CCN(c3ccc(F)c(F)c3F)CC2)CC1)C1=CCCC1 [Example 543] | 213 °C
12 | N#CCC(=O)N[C@H]1CC[C@H](CCN2CCN(c3cc(F)ccc3F)CC2)CC1 [Example 226, 2-Cyano-N-(4-{2-[4-(2,5-difluorophenyl)piperazin-1-yl]ethyl}cyclohexyl)acetamide] | 198 °C
13 | O=C(CC(F)(F)F)N[C@H]1CC[C@H](CCN2CCN(c3ccc(Cl)cc3)CC2)CC1 [Example 480, N-(4-{2-[4-(4-Chlorophenyl)-piperazin-1-yl]ethyl}cyclohexyl)-3,3,3-trifluoropropanamide] | 234 °C
14 | CNC(=O)C[C@H]1CC[C@H](CCN2CCN(c3ccccc3F)CC2)CC1 [Example 300, 2-(4-{2-[4-(2-Fluorophenyl)-piperazin-1-yl]ethyl}cyclohexyl)-N-methylacetamide] | 165 to 166 °C
15 | N#CCCCC(=O)N[C@H]1CC[C@H](CCN2CCN(c3ccc(F)c(Cl)c3)CC2)CC1 [Example 598, N-(4-{2-[4-(3-Chloro-4-fluorophenyl)piperazin-1-yl]ethyl}cyclohexyl)-4-cyanobutanamide] | 142 °C
16 | O=C(N[C@H]1CC[C@H](CCN2CCN(c3cccc(C(F)(F)F)c3F)CC2)CC1)[C@@H]1CCCN1 [Example 501, Pyrrolidine-2-carboxylic acid (4-{2-[4-(2-fluoro-3-trifluoro-methylphenyl)piperazin-1-yl]ethyl}cyclohexyl) amide] | 140 °C

Row | SMILES | melting point
17 | COCCCC(=O)N[C@H]1CC[C@H](CCN2CCN(c3cccc(F)c3C)CC2)CC1 [Example 689, N-(4-{2-[4-(3-Fluoro-2-methylphenyl)piperazin-1-yl]ethyl}cyclohexyl)-4-methoxybutanamide] | 172 °C
18 | CCCc1cccc(N2CCN(CC[C@H]3CC[C@H](NC(=O)CC#N)CC3)CC2)c1 [Example 271, 2-Cyano-N-(4-{2-[4-(3-propylphenyl)piperazin-1-yl]ethyl}cyclohexyl)acetamide] | 132 °C
19 | CCOCC(=O)N[C@H]1CC[C@H](CCN2CCN(c3ccccc3C#N)CC2)CC1 [Example 73, N-(4-{2-[4-(2-Cyanophenyl)-piperazin-1-yl]ethyl}cyclohexyl)-2-ethoxyacetamide] | 96 °C
20 | Cc1ccc(C)c(N2CCN(CC[C@H]3CC[C@H](NC(=O)CCCC#N)CC3)CC2)c1 [Example 413, 4-Cyano-N-(4-{2-[4-(2,5-dimethylphenyl)piperazin-1-yl]ethyl}cyclohexyl)butanamide] | 158 °C
21 | Cc1cc(C)cc(N2CCN(CC[C@H]3CC[C@@H](NC(=O)CC#N)CC3)CC2)c1 [Example 336, 2-Cyano-N-(4-{2-[4-(3,5-dimethylphenyl)piperazin-1-yl]ethyl}cyclohexyl)acetamide] | 119 °C
22 | Cc1cc(N2CCN(CC[C@H]3CC[C@H](NC(=O)CCCC#N)CC3)CC2)ccc1F [Example 358] | 160 °C
23 | COc1cc(OC)cc(N2CCN(CC[C@H]3CC[C@H](NC(=O)CCCC#N)CC3)CC2)c1 [Example 392, 4-Cyano-N-(4-{2-[4-(3,5-dimethoxyphenyl)piperazin-1-yl]ethyl}cyclohexyl)butanamide] | 147 °C
24 | CC(=O)CN1CCC(CCN2CCN(c3ccccc3C#N)CC2)CC1.Cl.Cl | 290 °C
25 | CC(=O)CN1CCC(CCN2CCN(c3cccc(Cl)c3Cl)CC2)CC1 [Example 21, 1-(4-{2-[4-(2,3-Dichlorophenyl)piperazin-1-yl]ethyl}piperidin-1-yl)propan-2-one] | 87 °C
26 | COCCCC(=O)N[C@H]1CC[C@H](CCN2CCN(c3cc(C)cc(C)c3)CC2)CC1 [Example 715, N-(4-{2-[4-(3,5-Dimethylphenyl)-piperazin-1-yl]ethyl}cyclohexyl)-4-methoxybutanamide] | 195 °C
27 | CC(=O)CN1CCC(CCN2CCN(c3ccc(F)c(C)c3)CC2)CC1.Cl.Cl | 258 °C
28 | CS(=O)(=O)CC(=O)N[C@H]1CC[C@H](CCN2CCN(c3cccc(F)c3F)CC2)CC1 [Example 426, N-(4-{2-[4-(2,3-Difluorophenyl)-piperazin-1-yl]ethyl}cyclohexyl)-2-methanesulfonylacetamide] | 214 °C
29 | CC(=O)CN1CCC(CCN2CCN(c3cc(C)c(F)cc3Cl)CC2)CC1.Cl.Cl | 344 °C
30 | CC(=O)CN1CCC(CCN2CCN(c3ccc(F)cc3C)CC2)CC1.Cl.Cl | 283 °C
31 | CC(=O)CN1CCC(CCN2CCN(c3cccc(Oc4ccccc4)c3)CC2)CC1.Cl.Cl | 241 °C
32 | N#CCCCCC(=O)NC1CCC(CCN2CCN(c3cccc(C(F)(F)F)c3)CC2)CC1 (centres unmarked) [Example 745, 5-Cyano-pentanoic acid (4-{2-[4-(3-trifluoromethylphenyl)-piperazin-1-yl]ethyl}cyclohexyl) amide] | 90 °C
